From US12338256B2, “Aza-tetracyclic oxazepine compounds and uses thereof” (Genentech, Inc., priority 2022, dated 2025)

What was measured:
[1] = test system: HPAC (homozygous mutant KRAS G12D human pancreatic cell line); experiment: KRAS 3D-Cell Proliferation Assay, HPAC (Example 503); assay type: cell-based; conditions: Homo sapiens, HPAC, 168 h, HPAC 3D culture, 7 days, CellTiter-Glo 3D; read-out: Prolif HPAC 3D ATP IC50
Summary of the method: (§1)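 3D culture, ultra-low attachment wells; RPMI-1640/10% FBS/2 mM L-glutamine. Overnight settle, then compound series, 0.3% DMSO final, 7 d, 37° C, 5% CO2. Readout: CellTiter-Glo 3D luminescence. % inhibition vs DMSO (0%) and 1 μM staurosporine (100%); IC50 via 4-parameter Hill.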

[2] = test system: H1975 (KRAS wild type human lung adenocarcinoma cell line); experiment: KRAS 3D-Cell Proliferation Assay, H1975 (Example 503); assay type: cell-based; conditions: Homo sapiens, NCI-H1975, 168 h, H1975 3D culture, 7 days, CellTiter-Glo 3D; read-out: Prolif H1975 3D ATP IC50
Summary of the method: as §1

SMILES	IC50 [1]	IC50 [2]
Cc1c(F)c(N)c(F)c(-c2nc3c4c(nc(OC[C@@]56CCCN5C[C@H](F)C6)nc4c2F)N2C[C@H]4CC[C@H](N4)[C@H]2[C@H](C)O3)c1Cl [Compound 195, 4-Chloro-2,6-difluoro-3-((5S,5aS,6S,9R)-1-fluoro-12-(((2R,7aS)-2-fluorotetrahydro-1H-pyrrolizin-7a(5H)-yl)methoxy)-5-methyl-5a,6,7,8,9,10-hexahydro-5H-4-oxa-3,10a,11,13,14-pentaaza-6,9-methanonaphtho[1,8-ab]heptalen-2-yl)-5-methylaniline]	0.0221 µM	1.34 µM
C[C@@H]1Oc2nc(-c3c(F)ccc4cc[nH]c(=O)c34)c(F)c3nc(OC[C@@]45CCCN4C[C@H](F)C5)nc(c23)N2C[C@H]3CC[C@H](N3)[C@@H]12 [Compound 196, 7-Fluoro-8-((5S,5aS,6S,9R)-1-fluoro-12-(((2R,7aS)-2-fluorotetrahydro-1H-pyrrolizin-7a(5H)-yl)methoxy)-5-methyl-5a,6,7,8,9,10-hexahydro-5H-4-oxa-3,10a,11,13,14-pentaaza-6,9-methanonaphtho[1,8-ab]heptalen-2-yl)isoquinolin-1(2H)-one]	20 µM	20 µM
Cc1nc(N)c(Cl)c(-c2nc3c4c(nc(OC[C@@]56CCCN5C[C@H](F)C6)nc4c2F)N2C[C@H]4CC[C@H](N4)[C@H]2[C@H](C)O3)c1C(F)(F)F [Compound 197, 3-Chloro-4-((5S,5aS,6S,9R)-1-fluoro-12-(((2R,7aS)-2-fluorotetrahydro-1H-pyrrolizin-7a(5H)-yl)methoxy)-5-methyl-5a,6,7,8,9,10-hexahydro-5H-4-oxa-3,10a,11,13,14-pentaaza-6,9-methanonaphtho[1,8-ab]heptalen-2-yl)-6-methyl-5-(trifluoromethyl)pyridin-2-amine]	0.00979 µM	0.468 µM
Cc1nc(N)c(C)c(-c2nc3c4c(nc(OC[C@@]56CCCN5C[C@H](F)C6)nc4c2F)N2C[C@H]4CC[C@H](N4)[C@H]2[C@H](C)O3)c1C(F)(F)F [Compound 198, 4-((5S,5aS,6S,9R)-1-Fluoro-12-(((2R,7aS)-2-fluorotetrahydro-1H-pyrrolizin-7a(5H)-yl)methoxy)-5-methyl-5a,6,7,8,9,10-hexahydro-5H-4-oxa-3,10a,11,13,14-pentaaza-6,9-methanonaphtho[1,8-ab]heptalen-2-yl)-3,6-dimethyl-5-(trifluoromethyl)pyridin-2-amine]	0.013 µM	3.72 µM
C[C@@H]1Oc2nc(-c3cc(N)cc4c3CC4)c(F)c3nc(OC[C@@]45CCCN4C[C@H](F)C5)nc(c23)N2C[C@H]3CC[C@H](N3)[C@@H]12 [Compound 201, 5-((5S,5aS,6S,9R)-1-Fluoro-12-(((2R,7aS)-2-fluorotetrahydro-1H-pyrrolizin-7a(5H)-yl)methoxy)-5-methyl-5a,6,7,8,9,10-hexahydro-5H-4-oxa-3,10a,11,13,14-pentaaza-6,9-methanonaphtho[1,8-ab]heptalen-2-yl)bicyclo[4.2.0]octa-1(6),2,4-trien-3-amine]	0.407 µM	10.6 µM
Cc1c(F)c(O)cc(-c2nc3c4c(nc(OC[C@@]56CCCN5C[C@H](F)C6)nc4c2F)N2C[C@H]4CC[C@H](N4)[C@H]2[C@H](C)O3)c1C(F)(F)F [Compound 202, 2-Fluoro-5-((5S,5aS,6S,9R)-1-fluoro-12-(((2R,7aS)-2-fluorotetrahydro-1H-pyrrolizin-7a(5H)-yl)methoxy)-5-methyl-5a,6,7,8,9,10-hexahydro-5H-4-oxa-3,10a,11,13,14-pentaaza-6,9-methanonaphtho[1,8-ab]heptalen-2-yl)-3-methyl-4-(trifluoromethyl)phenol]	2 µM	20 µM
Cc1c(F)ccc(-c2nc3c4c(nc(OC[C@@]56CCCN5C[C@H](F)C6)nc4c2F)N2C[C@H]4CC[C@H](N4)[C@H]2[C@H](C)O3)c1C(F)(F)F [Compound 203, (5S,5aS,6S,9R)-1-fluoro-2-(4-fluoro-3-methyl-2-(trifluoromethyl)phenyl)-12-(((2R,7aS)-2-fluorotetrahydro-1H-pyrrolizin-7a(5H)-yl)methoxy)-5-methyl-5a,6,7,8,9,10-hexahydro-5H-4-oxa-3,10a,11,13,14-pentaaza-6,9-methanonaphtho[1,8-ab]heptalene]	0.52 µM	20 µM
Cc1c(F)c(N)c(F)c(-c2nc3c4c(nc(OC[C@@]56CCCN5C[C@H](F)C6)nc4c2F)N2C[C@H]4CC[C@H](N4)[C@H]2[C@H](C)O3)c1I [Compound 204, 2,6-Difluoro-3-((5S,5aS,6S,9R)-1-fluoro-12-(((2R,7aS)-2-fluorotetrahydro-1H-pyrrolizin-7a(5H)-yl)methoxy)-5-methyl-5a,6,7,8,9,10-hexahydro-5H-4-oxa-3,10a,11,13,14-pentaaza-6,9-methanonaphtho[1,8-ab]heptalen-2-yl)-4-iodo-5-methylaniline]	0.0189 µM	1.42 µM
Cc1nc(N)cc(-c2nc3c4c(nc(OCC5(CN6CC7COCC7C6)CC5)nc4c2F)N2C[C@H]4CC[C@H](N4)[C@H]2[C@H](C)O3)c1C(F)(F)F (stereo partly drawn) [Compound 205, 4-((5S,5aS,6S,9R)-1-Fluoro-5-methyl-12-((1-((tetrahydro-1H-furo[3,4-c]pyrrol-5(3H)-yl)methyl)cyclopropyl)methoxy)-5a,6,7,8,9,10-hexahydro-5H-4-oxa-3,10a,11,13,14-pentaaza-6,9-methanonaphtho[1,8-ab]heptalen-2-yl)-6-methyl-5-(trifluoromethyl)pyridin-2-amine]	0.00335 µM	1.13 µM
Cc1nc(N)cc(-c2nc3c4c(nc(OCC5(CN6CC7CCC(C6)O7)CC5)nc4c2F)N2C[C@H]4CC[C@H](N4)[C@H]2[C@H](C)O3)c1C(F)(F)F [Compound 207, 4-((5S,5aS,6S,9R)-12-((1-((8-oxa-3-azabicyclo[3.2.1]octan-3-yl)methyl)cyclopropyl)methoxy)-1-fluoro-5-methyl-5a,6,7,8,9,10-hexahydro-5H-4-oxa-3,10a,11,13,14-pentaaza-6,9-methanonaphtho[1,8-ab]heptalene-2-yl)-6-methyl-5-(trifluoromethyl)pyridin-2-amine]	0.00236 µM	1.42 µM
Cc1nc(N)cc(-c2nc3c4c(nc(OCC5(CN6C[C@@H]7C[C@H]6CO7)CC5)nc4c2F)N2C[C@H]4CC[C@H](N4)[C@H]2[C@H](C)O3)c1C(F)(F)F [Compound 208, 4-((5S,5aS,6S,9R)-12-((1-(((1S,4S)-2-Oxa-5-azabicyclo[2.2.1]heptan-5-yl)methyl)cyclopropyl)methoxy)-1-fluoro-5-methyl-5a,6,7,8,9,10-hexahydro-5H-4-oxa-3,10a,11,13,14-pentaaza-6,9-methanonaphtho[1,8-ab]heptalene-2-yl)-6-methyl-5-(trifluoromethyl)pyridin-2-amine]	0.00489 µM	3.63 µM
Cc1nc(N)cc(-c2nc3c4c(nc(OCC5(CN6C[C@H]7C[C@@H]6CO7)CC5)nc4c2F)N2C[C@H]4CC[C@H](N4)[C@H]2[C@H](C)O3)c1C(F)(F)F [Compound 209, 4-((5S,5aS,6S,9R)-12-((1-(((1R,4R)-2-Oxa-5-azabicyclo[2.2.1]heptan-5-yl)methyl)cyclopropyl)methoxy)-1-fluoro-5-methyl-5a,6,7,8,9,10-hexahydro-5H-4-oxa-3,10a,11,13,14-pentaaza-6,9-methanonaphtho[1,8-ab]heptalene-2-yl)-6-methyl-5-(trifluoromethyl)pyridin-2-amine]	0.00347 µM	0.282 µM
Cc1nc(N)cc(-c2nc3c4c(nc(OCC5(CN6CC7CCC6CO7)CC5)nc4c2F)N2C[C@H]4CC[C@H](N4)[C@H]2[C@H](C)O3)c1C(F)(F)F [Compound 211, 4-((5S,5aS,6S,9R)-12-((1-((2-Oxa-5-azabicyclo[2.2.2]octan-5-yl)methyl)cyclopropyl)methoxy)-1-fluoro-5-methyl-5°,6,7,8,9,10-hexahydro-5H-4-oxa-3,10°,11,13,14-pentaaza-6,9-methanonaphtho[1,8-ab]heptalen-2-yl)-6-methyl-5-(trifluoromethyl)pyridin-2-amine]	0.00145 µM	1.15 µM
Cc1nc(N)cc(-c2nc3c4c(nc(OCC5(CN6CCOC7(CC7)C6)CC5)nc4c2F)N2C[C@H]4CC[C@H](N4)[C@H]2[C@H](C)O3)c1C(F)(F)F [Compound 212, 4-((5S,5aS,6S,9R)-12-((1-((4-Oxa-7-azaspiro[2.5]octan-7-yl)methyl)cyclopropyl)methoxy)-1-fluoro-5-methyl-5a,6,7,8,9,10-hexahydro-5H-4-oxa-3,10a,11,13,14-pentaaza[6,9]methanonaphtho[1,8-ab]heptalene-2-yl)-6-methyl-5-(trifluoromethyl)pyridin-2-amine]	0.00164 µM	0.389 µM
Cc1nc(N)cc(-c2nc3c4c(nc(OCC5(CN6CCO[C@H](C)C6)CC5)nc4c2F)N2C[C@H]4CC[C@H](N4)[C@H]2[C@H](C)O3)c1C(F)(F)F [Compound 213, 4-((5S,5aS,6S,9R)-1-Fluoro-5-methyl-12-((1-(((R)-2-methylmorpholino)methyl)cyclopropyl)methoxy)-5a,6,7,8,9,10-hexahydro-5H-4-oxa-3,10a,11,13,14-pentaaza-6,9-methanonaphtho[1,8-ab]heptalen-2-yl)-6-methyl-5-(trifluoromethyl)pyridin-2-amine]	0.00125 µM	0.295 µM
Cc1nc(N)cc(-c2nc3c4c(nc(OC[C@]56CCCN5CC(F)(F)C6)nc4c2F)N2C[C@H]4CC[C@H](N4)[C@H]2[C@H](C)O3)c1C(F)(F)F [Compound 217, 4-((5S,5aS,6S,9R)-12-(((R)-2,2-difluorotetrahydro-1H-pyrrolizin-7a(5H)-yl)methoxy)-1-fluoro-5-methyl-5a,6,7,8,9,10-hexahydro-5H-4-oxa-3,10a,11,13,14-pentaaza-6,9-methanonaphtho[1,8-ab]heptalen-2-yl)-6-methyl-5-(trifluoromethyl)pyridin-2-amine]	0.0388 µM	12.6 µM
